Measurements as given in patent publication EP3034610A1, “NOVEL TERPENOID COMPOUND AND METHOD FOR PRODUCING SAME” (The Kitasato Institute, priority 2013, dated 2015).

Columns and labels:
Format in all cases: cell-based
Details in all cases: 72 h treatment, OD 540 nm, tested 5-100 µg/mL
[1] = system: Mycobacterium smegmatis; assay: Cytotoxicity, MTT assay (viability), Mycobacterium smegmatis
[2] = system: SKOV (ovarian cancer); assay: Cytotoxicity, MTT assay (viability), SKOV
[3] = system: Jurkat (T-cell lymphoblastic leukemia); assay: Cytotoxicity, MTT assay (viability), Jurkat

Compound | IC50 [1] | IC50 [2] | IC50 [3]
tetramethylhexadecahydropyrenol | IC50 = 49.78 µg/ml | IC50 = 35.38 µ g/ml | IC50 = 29. 35 µ g/ml µg/ml
trimethyl-methylenehexadecahydropyrene | IC50 = 50.08 µg/ml | not active | not active
C=C(CCC=C(C)C)[C@@H]1CC[C@@]2(C)CCCC(C)=C2C1 [clavulatriene A] | not active | not active | IC50 = 5.63 µg/ml.
